According to US20070128217A1 (priority 2003, published 2007):

Experiments:
[1] = test system: control sera (pooled serum of ten healthy LUMC hospital workers; commercial negative donor pooled serum from the Dutch bloodbank); format: binding, human; design: Binding of Control serum LUMC to linear peptides / Binding of Control serum Blood-bank to linear peptides / Binding of Control serum LUMC to looped peptides / Binding of Control Serum Blood-Bank to Looped peptides / Binding of Control serum LUMC to linear peptides of the protein M of SARS-CoV Urbani / Binding of Control serum Blood-bank to linear peptides of the protein M of SARS-CoV Urbani / Binding of Control serum LUMC to looped peptides of the protein M of SARS-CoV Urbani / Binding of Control Serum Blood-Bank to Looped peptides of the protein M of SARS-CoV Urbani: unit not given here
[2] = test system: recombinant human anti-SARS-CoV antibody 03-018; format: binding; design: Binding of antibody 03-018 to linear peptides of the N protein of SARS-CoV Urbani / Binding of antibody 03-018 to looped/cyclic peptides of the N protein of SARS-CoV Urbani: unit not given here
[3] = test system: rabbit serum obtained by immunizing a rabbit with the SARS-CoV strain Frankfurt 1; format: binding; design: Binding of a rabbit serum to linear peptides / Binding of a rabbit serum to looped peptides / Rabbit serum linear peptides / Rabbit serum looped peptides / Binding of a rabbit serum to linear peptides of protein N of SARS-CoV Urbani (Rabbit serum linear peptides) / Binding of a rabbit serum to looped/cyclic peptides of protein N of SARS-CoV Urbani (Rabbit serum looped peptides): unit not given here
[4] = test system: antibodies in sera from SARS patients (sera 1a, 1b, 2, 6, 37, 62, London, SARS-yellow, SARS-green); format: binding, human; design: Binding of serum 6 to linear peptides of protein X1 of SARS-CoV Urbani / Binding of serum 37 to linear peptides of protein X1 of SARS-CoV Urbani / Binding of serum 6 to looped/cyclic peptide (PEPSCAN-ELISA) / Binding of serum 37 to looped/cyclic peptide (PEPSCAN-ELISA) / Binding of serum 37 to looped/cyclic peptides of protein X1 of SARS-CoV Urbani / Binding of serum 6 to linear peptides of protein X2 / Binding of serum 37 to linear peptides of protein X2 / Binding of serum 37 to looped/cyclic peptides of protein X2 of SARS-CoV Urbani / Binding of serum 6 to linear peptides of protein M of SARS-CoV Urbani / Binding of serum 37 to linear peptides of protein M of SARS-CoV Urbani / Binding of serum 6 to looped/cyclic peptides of protein M of SARS-CoV Urbani / Binding of serum 37 to looped/cyclic peptides of protein M of SARS-CoV Urbani / Binding of serum 6 to linear peptides of protein X3 of SARS-CoV Urbani / Binding of serum 37 to linear peptides of protein X3 of SARS-CoV Urbani / Binding of serum 37 to looped/cyclic peptides of protein X3 of SARS-CoV Urbani / Binding of serum 6 to linear peptides of protein X4 of SARS-CoV Urbani / Binding of serum 37 to linear peptides of protein X4 of SARS-CoV Urbani / Binding of serum 37 to looped/cyclic peptides of protein X4 of SARS-CoV Urbani / Binding of serum 6 to linear peptides of protein X5 of SARS-CoV Urbani / Binding of serum 37 to linear peptides of protein X5 of SARS-CoV Urbani / Binding of serum 37 to looped/cyclic peptides of protein X5 of SARS-CoV Urbani / Binding of serum 6 to linear peptides of protein N of SARS-CoV Urbani / Binding of serum 37 to linear peptides of protein N of SARS-CoV Urbani / Binding of serum 6 to linear peptide (PEPSCAN-ELISA) / Binding of serum 1a to looped/cyclic peptides of protein N of SARS-CoV Urbani / Binding of serum 1b to looped/cyclic peptides of protein N of SARS-CoV Urbani / Binding of serum 2 to looped/cyclic peptides of protein N of SARS-CoV Urbani / Binding of serum 6 to looped/cyclic peptides of protein N of SARS-CoV Urbani / Binding of serum 37 to looped/cyclic peptides of protein N of SARS-CoV Urbani / Binding of serum 62 to looped/cyclic peptides of protein N of SARS-CoV Urbani / Binding of serum London to looped/cyclic peptides of protein N of SARS-CoV Urbani / Binding of serum SARS-green to looped/cyclic peptides of protein N of SARS-CoV Urbani: unit not given here

| Sequence | Binding of Control Serum Blood-Bank to Looped peptides [1] | Binding of Control serum Blood-bank to linear peptides [1] | Binding of Control serum LUMC to linear peptides [1] | Binding of Control serum LUMC to looped peptides [1] | Binding of a rabbit serum to linear peptides of protein N of SARS-CoV Urbani (Rabbit serum linear peptides) [3] | Binding of a rabbit serum to looped/cyclic peptides of protein N of SARS-CoV Urbani (Rabbit serum looped peptides) [3] | Binding of serum 1a to linear peptides of protein N of SARS-CoV Urbani [4] | Binding of serum 1a to looped/cyclic peptides of protein N of SARS-CoV Urbani [4] | Binding of serum 1b to linear peptides of protein N of SARS-CoV Urbani [4] | Binding of serum 1b to looped/cyclic peptides of protein N of SARS-CoV Urbani [4] | Binding of serum 2 to linear peptides of protein N of SARS-CoV Urbani [4] | Binding of serum 2 to looped/cyclic peptides of protein N of SARS-CoV Urbani [4] | Binding of serum 6 to linear peptides of protein N of SARS-CoV Urbani [4] | Binding of serum 6 to looped/cyclic peptides of protein N of SARS-CoV Urbani [4] | Binding of serum 37 to linear peptides of protein N of SARS-CoV Urbani [4] | Binding of serum 37 to looped/cyclic peptides of protein N of SARS-CoV Urbani [4] | Binding of serum 62 to linear peptides of protein N of SARS-CoV Urbani [4] | Binding of serum 62 to looped/cyclic peptides of protein N of SARS-CoV Urbani [4] | Binding of serum London to linear peptides of protein N of SARS-CoV Urbani [4] | Binding of serum London to looped/cyclic peptides of protein N of SARS-CoV Urbani [4] | also measured |
| --- | --- | --- | --- | --- | --- | --- | --- | --- | --- | --- | --- | --- | --- | --- | --- | --- | --- | --- | --- | --- | --- |
| NQRSAPRITFGGPTD | 0.6 | 0.6 | 0.5 | 0.7 | 0.3 | 0.4 | 0.2 | 0.4 | 0.1 | 0.3 | 0.1 | 0.4 | 0.1 | 0.2 | 0.7 | 0.6 | 0.6 | 0.4 | 0.5 | 0.4 | Recognition of the peptide by antibody 03-018 [2]: recognized; Binding of serum SARS-green to linear peptides of protein N of SARS-CoV Urbani [4]: 0.3; Binding of serum SARS-green to looped/cyclic peptides of protein N of SARS-CoV Urbani [4]: 0.5; Binding of serum SARS-yellow to linear peptides of protein N of SARS-CoV Urbani [4]: 0.5; Binding of serum SARS-yellow to looped/cyclic peptides of protein N of SARS-CoV Urbani [4]: 0.7 |
| NSGPDDQIGYYRRAT | 0.7 | 0.7 | 0.7 | 0.8 | 0.1 | 0.5 | 0.2 | 0.5 | 0.1 | 0.3 | 0.1 | 0.5 | 0.2 | 0.3 | 0.7 | 1.0 | 0.6 | 0.7 | 0.4 | 0.5 | Binding of antibody 03-018 to linear peptides of the N protein of SARS-CoV Urbani [2]: 0.1; Binding of antibody 03-018 to looped/cyclic peptides of the N protein of SARS-CoV Urbani [2]: 0.2; Binding of serum SARS-green to linear peptides of protein N of SARS-CoV Urbani [4]: 0.1; Binding of serum SARS-green to looped/cyclic peptides of protein N of SARS-CoV Urbani [4]: 0.5; Binding of serum SARS-yellow to linear peptides of protein N of SARS-CoV Urbani [4]: 0.5; Binding of serum SARS-yellow to looped/cyclic peptides of protein N of SARS-CoV Urbani [4]: 0.6 |
| NTASWFTALTQHGKE | 0.5 | 0.5 | 0.6 | 0.4 | 0.1 | 0.1 | 0.2 | 0.2 | 0.1 | 0.2 | 0.1 | 0.2 | 0.1 | 0.1 | 0.7 | 0.4 | 0.5 | 0.3 | 0.4 | 0.3 | Binding of antibody 03-018 to linear peptides of the N protein of SARS-CoV Urbani [2]: 0.1; Binding of antibody 03-018 to looped/cyclic peptides of the N protein of SARS-CoV Urbani [2]: 0.2; Binding of serum SARS-green to linear peptides of protein N of SARS-CoV Urbani [4]: 0.4; Binding of serum SARS-green to looped/cyclic peptides of protein N of SARS-CoV Urbani [4]: 0.3; Binding of serum SARS-yellow to linear peptides of protein N of SARS-CoV Urbani [4]: 0.5; Binding of serum SARS-yellow to looped/cyclic peptides of protein N of SARS-CoV Urbani [4]: 0.3 |
| NTPKDHIGTRNPNNN | 0.5 | 0.8 | 0.7 | 0.6 | 0.1 | 0.1 | 0.3 | 0.4 | 0.1 | 0.3 | 0.3 | 0.4 | 0.2 | 0.3 | 0.8 | 0.6 | 0.7 | 0.3 | 0.4 | 0.4 | Binding of antibody 03-018 to linear peptides of the N protein of SARS-CoV Urbani [2]: 0.1; Binding of antibody 03-018 to looped/cyclic peptides of the N protein of SARS-CoV Urbani [2]: 0.2; Binding of serum SARS-green to linear peptides of protein N of SARS-CoV Urbani [4]: 0.4; Binding of serum SARS-green to looped/cyclic peptides of protein N of SARS-CoV Urbani [4]: 0.4; Binding of serum SARS-yellow to linear peptides of protein N of SARS-CoV Urbani [4]: 0.6; Binding of serum SARS-yellow to looped/cyclic peptides of protein N of SARS-CoV Urbani [4]: 0.4 |
